Source: patent publication US20240316047A1, “INHIBITORS OF RNA HELICASE DHX9 AND USES THEREOF” (ACCENT THERAPEUTICS, INC., priority 2022, published 2024)

Molecular target: Human recombinant DHX9 protein (Homo sapiens (Human), UniProt Q08211)
Experiment: DHX9 ATPase assay (ADP-Glo)
Assay type: biochemical
Details: for IC50: read-out: DHX9 Biochemical Inflection Point

Chain of Human recombinant DHX9 protein (Q08211 whole entry): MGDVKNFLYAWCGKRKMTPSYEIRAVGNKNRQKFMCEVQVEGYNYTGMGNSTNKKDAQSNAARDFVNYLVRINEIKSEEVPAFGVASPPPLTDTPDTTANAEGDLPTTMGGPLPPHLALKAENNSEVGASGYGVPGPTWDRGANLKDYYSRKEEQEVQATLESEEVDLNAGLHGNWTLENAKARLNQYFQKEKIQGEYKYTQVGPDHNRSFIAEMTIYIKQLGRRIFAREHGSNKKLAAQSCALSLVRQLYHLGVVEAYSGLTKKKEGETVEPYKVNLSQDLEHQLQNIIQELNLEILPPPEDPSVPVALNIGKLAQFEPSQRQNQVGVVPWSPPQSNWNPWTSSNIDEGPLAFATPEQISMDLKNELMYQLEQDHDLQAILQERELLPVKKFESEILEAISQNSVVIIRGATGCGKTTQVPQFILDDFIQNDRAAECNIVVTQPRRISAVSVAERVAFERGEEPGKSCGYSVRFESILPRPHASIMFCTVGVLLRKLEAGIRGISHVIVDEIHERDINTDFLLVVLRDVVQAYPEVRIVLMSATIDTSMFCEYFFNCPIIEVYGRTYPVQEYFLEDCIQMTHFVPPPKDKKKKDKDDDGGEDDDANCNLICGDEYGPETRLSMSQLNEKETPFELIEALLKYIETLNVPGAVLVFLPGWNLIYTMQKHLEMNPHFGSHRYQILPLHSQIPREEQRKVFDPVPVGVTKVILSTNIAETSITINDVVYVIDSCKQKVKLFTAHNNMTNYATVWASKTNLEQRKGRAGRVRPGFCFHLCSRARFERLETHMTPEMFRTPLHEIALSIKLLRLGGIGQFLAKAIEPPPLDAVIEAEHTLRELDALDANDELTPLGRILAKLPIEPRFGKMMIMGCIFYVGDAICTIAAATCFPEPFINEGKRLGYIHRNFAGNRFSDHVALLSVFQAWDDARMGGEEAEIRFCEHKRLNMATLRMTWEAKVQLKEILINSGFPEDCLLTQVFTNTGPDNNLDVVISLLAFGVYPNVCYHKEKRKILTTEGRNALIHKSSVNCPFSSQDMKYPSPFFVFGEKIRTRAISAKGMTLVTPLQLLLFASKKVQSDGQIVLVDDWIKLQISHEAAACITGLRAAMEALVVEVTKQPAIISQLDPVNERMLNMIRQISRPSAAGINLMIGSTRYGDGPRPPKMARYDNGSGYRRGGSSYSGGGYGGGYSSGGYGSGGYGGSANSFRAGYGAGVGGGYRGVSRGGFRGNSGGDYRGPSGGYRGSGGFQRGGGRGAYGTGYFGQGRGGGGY

| SMILES | DHX9 Biochemical Max Inhibition | IC50 |
| --- | --- | --- |
| Cc1cccnc1-c1cc(C(=O)Nc2cc(Br)cc(NS(C)(=O)=O)c2)cn1C [Example 84, N-(3-bromo-5-(methylsulfonamido)phenyl)-1-methyl-5-(3-methylpyridin-2-yl)-1H-pyrrole-3-carboxamide] | 66.7% | 0.0101 µM |
| CS(=O)(=O)Nc1cc(Cl)cc(NC(=O)c2cnn(C3CC4(CC(N)C4)C3)c2)c1 (stereo not shown) [Example 319] | 70.1% | 0.0577 µM |
| Cn1cc(C(=O)Nc2cc(Cl)cc(NS(C)(=O)=O)c2)cc1-c1ccc(N2CCN(C(=O)C3CCCC3)CC2)cn1 [Example 592] | 77.5 | 0.0541 µM |
| CS(=O)(=O)Nc1cc(Cl)cc(NC(=O)c2cnn(CCO)c2)c1 [Example 127] | 66.4% | 0.138 µM |
| CC(=O)N1CCC(c2cnc(-c3cc(C(=O)Nc4cc(Cl)cc(NS(C)(=O)=O)c4)sc3C)nc2)CC1 [Example 699] | 93.6 | 0.0022 µM |
| Cc1sc(C(=O)Nc2cc(Cl)cc(NS(C)(=O)=O)c2)cc1-c1ncccc1CC(=O)N(C)C [Example 385] | 78.1% | 0.0838 µM |
| Cc1ccnc(OCc2cncc(F)c2)c1-c1cc(C(=O)Nc2cc(Cl)cc(NS(C)(=O)=O)c2)cn1C [Example 624] | 97.2 | 0.0089 µM |
| Cc1cc(N2CCC(F)(F)CC2)cnc1-c1cc(C(=O)Nc2cc(Cl)cc(NS(C)(=O)=O)c2)sc1C [Example 602] | 92.4 | 0.0578 µM |
| CN1C(=O)N(c2csc(C(=O)Nc3cc(Cl)cc(NS(C)(=O)=O)c3)c2)C(=O)C1(C)C [Example 432] | 75.4 | 0.0121 µM |
| Cc1sc(C(=O)Nc2cc(Cl)cc(NS(C)(=O)=O)c2)cc1-c1ncc(C#N)cn1 [Example 585] | 70.9 | 0.0229 µM |
| Cc1cc(C(=O)Nc2cc(Cl)cc(NS(C)(=O)=O)c2)cn1-c1ncc(Cl)cn1 [Example 578] | 70.1 | 0.149 µM |
| CCS(=O)(=O)Nc1cc(Cl)cc(NC(=O)c2cc(-c3ncccn3)c(C)s2)c1 [Example 27] | 68% | 0.0064 µM |
| CS(=O)(=O)Nc1cc(F)cc(NC(=O)c2cc(-c3ccccc3O)cs2)c1 [Example 114] | 66.4% | 0.0435 µM |
| CS(=O)(=O)Nc1cc(Cl)cc(NC(=O)c2cc(-c3ncccc3Oc3cccnc3)cs2)c1 [Example 239] | 67.7% | 0.008 µM |
| Cc1cc(F)cnc1-c1cc(C(=O)Nc2cc(Cl)cc(NS(C)(=O)=O)c2)sc1C [Example 348] | 74.6% | 0.0318 µM |
| Cn1cc(C(=O)Nc2cc(Cl)cc(NS(C)(=O)=O)c2)cc1-c1cccc(N2CC(F)(F)C2)n1 [Example 551] | 87.4 | 0.105 µM |
| CS(=O)(=O)Nc1cc(Br)cc(NC(=O)c2cccc(-n3cccn3)c2)c1 [Example 118] | 55.8% | 0.0451 µM |
| CS(=O)(=O)Nc1cc(Cl)cc(NC(=O)c2cnn(-c3ncccc3OCc3ccn[nH]3)c2)c1 [Example 253] | 70% | 0.11 µM |
| Cc1sc(C(=O)Nc2cc(Cl)cc(NS(C)(=O)=O)c2)cc1-c1ncc(N2CCC3(CC2)CC3(F)F)cc1F [Example 478] | 66.8 | 0.15 µM |
| CS(=O)(=O)Nc1cc(Br)cc(NC(=O)c2cnn(-c3cccc(OC(F)F)n3)c2)c1 [Example 57] | 45.8% | 14.6 µM |
| CCCS(=O)(=O)Nc1cc(Cl)cc(NC(=O)c2cc(-c3ccc(N4CC(F)(F)C4)cn3)n(C)c2)c1 [Example 531] | 72.3 | 2.6 µM |

| SMILES | DHX9 Biochemical Max Inhibition | IC50 |
| --- | --- | --- |
| CS(=O)(=O)Nc1cc(Cl)cc(NC(=O)c2cnn(-c3c(F)cccc3OCc3cnco3)c2)c1 [Example 721] | 68.1 | 0.231 µM |
| Cn1cc(C(=O)Nc2cc(Cl)cc(NS(C)(=O)=O)c2)cc1-c1ncc(N2CCC3(CC2)CC3)cc1F [Example 468] | 96 | 0.132 µM |
| CCOc1cnc(-c2cc(C(=O)Nc3cc(Cl)cc(NS(=O)(=O)CC)c3)sc2C)nc1 [Example 365] | 78.7% | 0.0205 µM |
| CS(=O)(=O)Nc1cc(Cl)cc(NC(=O)c2cc3cnccn3c2)c1 [Example 330] | 61.9% | 0.088 µM |
| Cc1sc(C(=O)Nc2cc(Cl)cc(NS(C)(=O)=O)c2)cc1-c1ncc(OCC(F)(F)F)cn1 [Example 706] | 96.1 | 0.0196 µM |
| Cc1cc(C(=O)Nc2cc(Cl)cc(NS(C)(=O)=O)c2)cn1-c1ccc(F)cn1 [Example 390] | 80.4% | 0.0015 µM |
| CC1CN(c2ccc(-n3cc(C(=O)Nc4cc(Cl)cc(NS(C)(=O)=O)c4)cn3)nc2)CCO1 (stereo not shown) [Example 92] | 61.1% | 0.0221 µM |
| COCCOc1ccc(-n2cc(C(=O)Nc3cc(Cl)cc(NS(C)(=O)=O)c3)cc2C)nc1 [Example 442] | 72.7 | 0.0093 µM |
| CC(=O)N1CCN(c2cnc(-n3cc(C(=O)Nc4cc(Br)cc(NS(C)(=O)=O)c4)cn3)c(C)c2)CC1 [Example 87] | 55.7% | 0.0261 µM |
| CS(=O)(=O)Nc1cc(Cl)cc(NC(=O)c2cnn(-c3ncccc3OCc3cccc(O)c3)c2)c1 [Example 179] | 72.3% | 0.0272 µM |
| CS(=O)(=O)Nc1cc(Cl)cc(NC(=O)c2cc(-c3ncccn3)cs2)c1 [Example 26] | 65.6% | 0.0018 µM |
| CS(=O)(=O)Nc1cc(Cl)cc(NC(=O)c2csc(-c3ccccc3)c2)c1 [Example 124, N-(3-chloro-5-(methylsulfonamido)phenyl)-5-phenylthiophene-3-carboxamide] | 53.8% | 0.604 µM |
| CCc1sc(C(=O)Nc2cc(Cl)cc(NS(C)(=O)=O)c2)cc1-c1ncc(F)cc1F [Example 588] | 67.7 | 0.103 µM |
| Cc1cc(C(=O)Nc2cc(Cl)cc(NS(C)(=O)=O)c2)cn1-c1ncc(N2CCCC2=O)cn1 [Example 401] | 70.3 | 0.0106 µM |
| Cc1ncc(OCc2cc(F)cc(F)c2)c(-c2cc(C(=O)Nc3cc(Cl)cc(NS(C)(=O)=O)c3)cn2C)n1 [Example 734] | 71.2 | 0.0066 µM |
| Cc1cc(C(=O)Nc2cc(Cl)cc(NS(C)(=O)=O)c2)cn1-c1ncc(N2CC(F)(F)C2)cc1C(F)(F)F [Example 407] | 105 | 0.203 µM |
| Cc1sc(C(=O)Nc2cc(Cl)cc(NS(C)(=O)=O)c2)cc1-c1ncccc1O [Example 227] | 70.6% | 0.0072 µM |
| CS(=O)(=O)Nc1cc(Cl)cc(NC(=O)c2cnn(-c3ncccc3Oc3cccnc3)c2)c1 [Example 676] | 68.4 | 0.07 µM |
| CS(=O)(=O)Nc1cc(Cl)cc(NC(=O)c2cc(Cl)n(-c3ncc(F)cn3)c2)c1 [Example 709] | 60.9 | 0.1 µM |
| CCS(=O)(=O)Nc1cc(F)cc(NC(=O)c2cc(Br)cs2)c1 [Example 72] | 67.2% | 0.378 µM |
